Patent publication US10174037B2, “Dihydropyrazolopyrimidinone compounds as PDE2 inhibitors” (Merck Sharp & Dohme Corp., priority 2015, dated 2019)

target: human PDE2A1 (Homo sapiens (Human), UniProt O00408); assay: PDE selectivity IMAP FP assay, human PDE2A1; type: biochemical; conditions: Human PDE2; Lab B; read-out: Human PDE2 Ki (nM) Lab B
Experimental: Selectivity for PDE2, as compared to other PDE families, was assessed using the IMAP® technology. Human PDE10A2 enzyme was prepared from cytosolic fractions of transiently transfected HEK cells.
A Labcyte POD 810 (Labcyte, Sunnyvale, Calif.) was used to dispense 200 nL from each well of the titration plate to make eleven copies of the assay plate for each titration, one copy for each PDE enzyme. A solution of each enzyme (dilution from aliquots, sufficient to produce 20% substrate conversion) and a separate solution of FAM-labeled cAMP or FAM-labeled cGMP from Molecular Devices (Sunnyvale, Calif., product # R7506 or cGMP#R7508), at a final concentration of 50 nM were made in the assay buffer (10 mM Tris HCl, pH 7.2, 10 mM MgCl2, 0.05% NaN3 0.01% Tween-20, and 1 mM DTT). Note that the substrate for PDE2 is 50 nM FAM cAMP containing 1000 nM of cGMP. The enzyme and the substrate were then added to the assay plates in two consecutive additions of 10 μL and then shaken to mix. The reaction was allowed to proceed at room temperature for 60 minutes. A binding solution was then made from the kit components, comprised of 80% Solution A, 20% Solution B and binding reagent at a volume of 1/600 the total binding solution. The enzymatic reaction was stopped by addition of 60 μL of the binding solution to each well of the assay plate. […] The plates were incubated at room temperature for one hour, then the parallel and perpendicular fluorescence was measured using a Tecan Genios Pro plate reader (Tecan, Switzerland). […] The intrinsic PDE2 inhibitory activity of a compound which may be used in accordance with the present invention may be determined by these assays. […]
The PDE2 Ki is a measure of the ability of the test compound to inhibit the action of the PDE2 enzyme.

Sequence of human PDE2A1 (O00408 other isoform, or with tags, fused parts or gaps): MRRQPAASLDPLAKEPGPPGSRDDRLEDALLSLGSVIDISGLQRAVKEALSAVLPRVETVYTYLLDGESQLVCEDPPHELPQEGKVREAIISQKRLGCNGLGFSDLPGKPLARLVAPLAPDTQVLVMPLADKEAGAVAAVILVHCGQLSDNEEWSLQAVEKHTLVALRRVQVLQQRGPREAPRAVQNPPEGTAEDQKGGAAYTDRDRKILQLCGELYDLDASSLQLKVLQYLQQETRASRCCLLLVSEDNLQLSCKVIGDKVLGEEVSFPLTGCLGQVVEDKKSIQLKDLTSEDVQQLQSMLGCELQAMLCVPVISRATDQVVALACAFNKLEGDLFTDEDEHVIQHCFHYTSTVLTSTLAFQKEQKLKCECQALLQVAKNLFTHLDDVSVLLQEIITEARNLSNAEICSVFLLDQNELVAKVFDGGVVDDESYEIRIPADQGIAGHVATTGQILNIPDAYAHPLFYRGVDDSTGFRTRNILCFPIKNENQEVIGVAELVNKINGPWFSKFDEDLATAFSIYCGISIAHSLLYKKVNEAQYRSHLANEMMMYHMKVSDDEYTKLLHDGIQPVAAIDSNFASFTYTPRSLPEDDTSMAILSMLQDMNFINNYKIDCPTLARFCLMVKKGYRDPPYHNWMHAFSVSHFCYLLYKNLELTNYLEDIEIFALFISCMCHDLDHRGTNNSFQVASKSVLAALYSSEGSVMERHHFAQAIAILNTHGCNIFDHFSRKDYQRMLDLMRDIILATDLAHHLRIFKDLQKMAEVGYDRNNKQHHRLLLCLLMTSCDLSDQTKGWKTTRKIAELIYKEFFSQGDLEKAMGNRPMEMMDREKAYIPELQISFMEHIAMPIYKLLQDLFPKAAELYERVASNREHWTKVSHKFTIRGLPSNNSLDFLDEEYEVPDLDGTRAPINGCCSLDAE

Compared with `CC[C@@H](O)c1nn([C@@H](C)c2ccc(C(F)(F)F)cc2)c2nc(O)[nH]c(=O)c12` (mixture of isomers) [Example 294, (R,S)- and (R,R)- and (S,S)- and (S,R)-6-Hydroxy-3-(1-hydroxypropyl)-1-(1-(4-(trifluoromethyl)phenyl)ethyl)-1H-pyrazolo[3,4-d]pyrimidin-4(5H)-one], `CC(c1ccc(C(F)(F)C(F)(F)F)cc1)n1nc(CO)c2c(=O)[nH]c(O)nc21` (single isomer, unassigned) [Example 31, (R)- or (S)-6-Hydroxy-3-(hydroxymethyl)-1-(1-(4-(perfluoroethyl)phenyl)ethyl)-1H-pyrazolo[3,4-d]pyrimidin-4(5H)-one] is 2.1-fold lower in Ki: 105 nM for the first, 50 nM for the second.

First: CC[C@@H](O)c1nn([C@@H](C)c2ccc(C(F)(F)F)cc2)c2nc(O)[nH]c(=O)c12 (mixture of isomers) [Example 295, (R,S)- and (R,R)- and (S,S)- and (S,R)-6-Hydroxy-3-(1-hydroxypropyl)-1-(1-(4-(trifluoromethyl)phenyl)ethyl)-1H-pyrazolo[3,4-d]pyrimidin-4(5H)-one]
Second: CC(c1ccc(C(F)(F)C(F)(F)F)cc1)n1nc(CO)c2c(=O)[nH]c(O)nc21 (single isomer, unassigned) [Example 32, (S)- or (R)-6-Hydroxv-3-(hydroxymethyl)-1-(1-(4-(perfluoroethyl)phenyl)ethyl)-1H-pyrazolo[3,4-d]pyrimidin-4(5H)-one]
The Ki of the first is 11-fold lower: 168 nM for the first, roughly 1900 nM for the second.

First: CC1(C(c2ccc(C(F)(F)F)cc2)n2nc(CO)c3c(=O)[nH]c(O)nc32)CC1 (single isomer, unassigned) [Example 4]
Second: CC1(C(c2ccc(C(F)(F)F)c(F)c2)n2nc(CO)c3c(=O)[nH]c(O)nc32)CC1 (single isomer, unassigned) [Example 16]
The Ki of the first is 2.1-fold lower: 342 nM for the first, 702 nM for the second. The first binds more tightly here.

Compared with `CC1(C(c2ccc(C(F)(F)F)c(F)c2)n2nc(CO)c3c(=O)[nH]c(O)nc32)CC1` (single isomer, unassigned) [Example 17], `CC(c1ccc(C(F)(F)F)cc1F)n1nc(CO)c2c(=O)[nH]c(N(C)C)nc21` (single isomer, unassigned) [Example 80, (R)- or (S)-6-(Dimethylamino)-1-(1-(2-fluoro-4-(trifluoromethyl)phenyl)ethyl)-3-(hydroxymethyl)-1H-pyrazolo[3,4-d]pyrimidin-4(5H)-one] is 2.2-fold lower in Ki: 55 nM for the first, 25 nM for the second.

First: CN(C)c1nc2c(c(CO)nn2C(c2ccc(C(F)F)cc2)C2CC2)c(=O)[nH]1 (single isomer, unassigned) [Example 63]
Second: CC(c1ccc(C(F)F)cc1)n1nc(CO)c2c(=O)[nH]c(N(C)C)nc21 (single isomer, unassigned) [Example 82, (R)- or (S)-1-(1-(4-(Difluoromethyl)phenyl)ethyl)-6-(dimethylarnino)-3-(hydroxymethyl)-1H-pyrazolo[3,4-d]pyrimidin-4(5H)-one]
The Ki of the first is 11-fold lower: 3.2 nM for the first, 35 nM for the second.

First: CC(c1ccc(C(C)(C)C)cc1)n1nc(CO)c2c(=O)[nH]c(N(C)C)nc21 (single isomer, unassigned) [Example 67, (S)- or (R)-1-(1-(4-tert-Butylphenyl)ethyl)-6-(dimethylamino)-3-(hydroxymethyl)-1H-pyrazolo[3,4-d]pyrimidin-4(5H)-one]
Second: CC(c1ccc(C(C)(F)F)cc1)n1nc(CO)c2c(=O)[nH]c(N(C)C)nc21 (single isomer, unassigned) [Example 102, (R)- or (S)-1-(1-(4-(1,1-Difluoroethyl)phenyl)ethyl)-6-(dimethylamino)-3-(hydroxymethyl)-1H-pyrazolo[3,4-d]pyrimidin-4(5H)-one]
The Ki of the first is 40-fold lower: 0.25 nM for the first, 9.9 nM for the second. The first binds more tightly here.

Going from `CC(c1ccc(CC(F)(F)F)cc1)n1nc(CO)c2c(=O)[nH]c(N(C)C)nc21` (single isomer, unassigned) [Example 70, (R)- or (S)-6-(Dimethylamino)-3-(hydroxymethyl)-1-(1-(4-(2,2,2-trifluoroethyl)phenyl)ethyl)-1H-pvrazolo[3,4-d]pyrimidin-4(5H)-one] to `CC(C)C(c1ccc(CC(F)(F)F)cc1)n1nc(CO)c2c(=O)[nH]c(N(C)C)nc21` (single isomer, unassigned) [Example 89, (S)- or (R)-6-(Dimethylamino)-3-(hydroxymethyl)-1-(2-methyl-1-(4-(2,2,2-trifluoroethyl)phenyl)propyl)-1H-pyrazolo[3,4-d]pyrimidin-4(5H)-one], the Ki falls from 4.1 nM to 0.21 nM (20-fold).

First: CCC(c1ccc(C(F)(F)F)cc1)n1nc(CO)c2c(=O)[nH]c(N(C)C)nc21 (single isomer, unassigned) [Example 72, (R)- or (S)-6-(Dimethylamino)-3-(hydroxymethyl)-1-(1-(4-(trifluoromethyl)phenyl)propyl)-1H-pyrazolo[3,4-d]pyrimidin-4(5H)-one]
Second: CCC(c1ccc(C(C)(F)F)cc1)n1nc(CO)c2c(=O)[nH]c(N(C)C)nc21 (single isomer, unassigned) [Example 136, (R)- or (S)-1-(1-(4-(1,1-Difluoroethyl)phenyl)propyl)-6-(dimethylamino)-3-(hydroxymethyl)-1H-pyrazolo[3,4-d]pyrimidin-4(5H)-one]
The Ki of the first is 1.5-fold higher: 2.9 nM for the first, 1.9 nM for the second.

First: CCC(c1ccc(C(F)F)cc1)n1nc(CO)c2c(=O)[nH]c(N(C)C)nc21 (single isomer, unassigned) [Example 92, (R)- or (S)-1-(1-(4-(Difluoromethyl)phenyl)propyl)-6-(dimethylamino)-3-(hydroxymethyl)-1H-pyrazolo[3,4-d]pyrimidin-4(5H)-one]
Second: CCC(c1ccc(OC(F)F)cc1)n1nc(CO)c2c(=O)[nH]c(N(C)C)nc21 (single isomer, unassigned) [Example 125, (S)- or (R)-1-(1-(4-(Difluoromethoxy)phenyl)propyl)-6-(dimethylamino)-3-(hydroxymethyl)-1H-pyrazolo[3,4-d]pyrimidin-4(5H)-one]
The Ki of the first is 3.5-fold higher: 8.4 nM for the first, 2.4 nM for the second. The second binds more tightly here.

Going from `CCC(c1ccc(CC(F)(F)F)cc1)n1nc(CO)c2c(=O)[nH]c(N(C)C)nc21` (single isomer, unassigned) [Example 98, (R)- or (S)-6-(Dimethylamino)-3-(hydroxymethyl)-1-(1-(4-(2,2,2-trifluoroethyl)phenyl)propyl)-1H-pyrazolo[3,4-d]pyrimidin-4(5H)-one] to `CCC(c1ccc(C(F)(F)F)cc1F)n1nc(CO)c2c(=O)[nH]c(N(C)C)nc21` (single isomer, unassigned) [Example 131, (S)- or (R)-6-(Dimethylamino)-1-(1-(2-fluoro-4-(trifluoromethyl)phenyl)propyl)-3-(hydroxymethyl)-1H-pyrazolo[3,4-d]pyrimidin-4(5H)-one], the Ki rises from 1.3 nM to 3.9 nM (3-fold). The first binds more tightly here.

First: CCC(c1ccc(CC(F)(F)F)cc1)n1nc(CO)c2c(=O)[nH]c(N(C)C)nc21 (single isomer, unassigned) [Example 99, (S)- or (R)-6-(Dimethyiamino)-3-(hydroxymethyl)-1-(1-(4-(2,2,2-trifluoroethyl)phenyl)propyl)-1H-pyrazolo[3,4-d]pyrimidin-4(5H)-one]
Second: CCC(c1ccc(C(C)(F)F)cc1F)n1nc(CO)c2c(=O)[nH]c(N(C)C)nc21 (single isomer, unassigned) [Example 110, (R)- or (S)-1-(1-(4-(1,1-Difluoroethyl)-2-fluorophenyl)propyl)-6-(dimethylamino)-3-(hydroxymethyl)-1H-pyrazolo[3,4-d]pyrimidin-4(5H)-one]
The Ki of the first is 9-fold lower: 0.31 nM for the first, 2.8 nM for the second. The first binds more tightly here.

Going from `CC(c1ccc(C(F)F)c(F)c1)n1nc(CO)c2c(=O)[nH]c(N(C)C)nc21` (single isomer, unassigned) [Example 104, (R)- or (S)-1-(1-(4-(Difluoromethyl)-3-fluorophenyl)ethyl)-6-(dimethylamino)-3-(hydroxymethyl)-1H-pyrazolo[3,4-d]pyrimidin-4(5H)-one] to `CC(C)C(c1ccc(C(F)F)c(F)c1)n1nc(CO)c2c(=O)[nH]c(N(C)C)nc21` (single isomer, unassigned) [Example 115, (R)- or (S)-1-(1-(4-(Difluoromethyl)-3-fluorophenyl)-2-methylpropyl)-6-(dimethylamino)-3-(hydroxymethyl)-1H-pyrazolo[3,4-d]pyrimidin-4(5H)-one], the Ki falls from 40 nM to 0.21 nM (190-fold).

Compared with `CC(c1ccc(C(C)(F)F)cc1F)n1nc(CO)c2c(=O)[nH]c(N(C)C)nc21` (single isomer, unassigned) [Example 109, (S)- or (R)-1-(1-(4-(1,1-Difluoroethyl)-2-fluorophenyl)ethyl)-6-(dimethylamino)-3-(hydroxymethyl)-1H-pyrazolo[3,4-d]pyrimidin-4(5H)-one], `CN(C)c1nc2c(c(CO)nn2C(c2ccc(C(F)F)c(F)c2)C2CC2)c(=O)[nH]1` (single isomer, unassigned) [Example 153, (S)- or (R)-1-(Cyclopropyl(4-(difluoromethyl)-3-fluorophenyl)methyl)-6-(dimethylamino)-3-(hydroxymethyl)-1H-pyrazolo[3,4-d]pyrimidin-4(5H)-one] is 2.7-fold lower in Ki: 8 nM for the first, 3 nM for the second. The second binds more tightly here.
